Columns and labels:
[1] = glycemia evaluation in C57Bl/6 mice; format: in vivo; conditions: for blood glucose concentration: IP 3 mg/kg, t0, 5 h, 24 h; for blood glucose concentrations: oral gavage 3 mg/kg/day for 3 days, t0, 5 h after each gavage, 24 h after last
Method: (§1) Male mice (n=8 per group) were assigned to the following test groups. A dosage of 3 mg/kg/mouse was administered daily for 3 consecutive days in 200 μl of:
(§2) Group A: saline and DMSO carrier (referred to throughout the drawings and examples describing the in vivo experiment as “Control-Saline”, “Vehicle”, “Saline” or “Control”), at the equivalent concentration administered the other test groups (2.5%). Group B: Compound 1b (C5) at 3 mg/Kg: (total of 9 mg/Kg). Group C: Compound 1a (C13) at 3 mg/Kg: (total of 9 mg/Kg). Group D: L-798106 at 3 mg/Kg: (total of 9 mg/Kg).
A. For glycemia evaluation, blood glucose was measured from the vein tail at the following time points (t(h)—time in hours): t=0—before gavage; t=5 h—following each gavage on days 1, 2 and 3 (5G1, 5G2 and 5G3, respectively); and t=24 h—after the last gavage (24G3).
A. Glycemia evaluation: Glucose concentration was measured in blood obtained from the vein tail of C57Bl/6 mice (n=12/group). Results are represented in FIGS. 13A-13D, in which, t(h) represents time in hours as follows: before injection (t0), at time 5 h (t5) and 24 h (t24) after injection of 200 μl saline/DMSO (FIG. 13A); of 3 mg/kg of C5 (FIG. 13B); C13 (FIG. 13C); or L-798106 (FIG. 13D), by using Accu-Chek performa glucometer.

[2] = kidney function parameters in sera of C57Bl/6 mice; format: in vivo
Method: Blood was collected by cardiac puncture, and 50 μl were collected in EDTA containing tubes for cell blood count (CBC). Further, 200-300 μl of blood was centrifuged and serum was collected for biochemical analysis.
D. Effects of orally administered compounds on kidney function parameters: Creatinine and Urea levels were measured in the sera obtained from mice 24 h after the third gavage with saline/DMSO (Control Saline); 3 mg/kg/day Compound C5; Compound C13 or the EP3 antagonist L-798106. […] 12 B for Urea.
D. Kidney function parameters: Creatinine (FIG. 15A) and Urea (FIG. 15B) were measured in sera obtained from mice, 24 h after injection of either Saline/DMSO (Control Saline), Compound C5 or L-798106.

C57Bl/6 mice = experiment: acute toxicity, IP and oral; format: in vivo; conditions: for physical or behavioral differences: IP 3 mg/kg or gavage total 9 mg/kg; for differences between experimental groups and saline/DMSO control mice (summary): IP 3 mg/kg/mouse or gavage 9 mg/kg/mouse
Method: The safety of compounds C5 and C13 was examined in various in vivo settings, and compared to that of L-798106. The compounds were administered by oral gavage or intraperitoneal (IP) injection to C57Bl/6 mice, and acute toxicity, liver and kidney functions and blood glucose and insulin levels were evaluated. Additional safety experiments and measurements of various blood parameters in diabetic mice are further presented in Example 12 below.
Acute toxicity—IP and oral. For acute toxicity studies, a single IP dose of 3 mg/kg, or three oral doses (total of 9 mg/Kg) were administered. No mortality was observed by the end of the monitoring period (two days for IP administration or four days for oral administration), and all animals survived both modes of administration. No physical or behavioral differences were observed between the different groups and between the two modes of drug administration. Pictures of the sites of IP injection were taken when animals were sacrificed and no damage was observed.
as §1, §2

human islet cells = experiment: Caspase-Glo 3/7 assay in palmitic acid-treated human islets; format: cell-based; set-up: rescuing human islet cells from apoptosis, compared with L-798106 / inhibiting or reversing palmitate-induced apoptosis in pancreatic islets of both human donors / inhibition of palmitate-induced apoptosis in human islets, donor 1: dose or concentration left out as unconfirmed; conditions: for rescuing human islet cells from apoptosis, compared with L-798106: two human donors
Method: Islet and cell culture: The pancreatic β-cell line MIN6, which is a clonal murine insulin-secreting line, was cultured in DMEM (Biological Industries, Beit Haemek, Israel) supplemented with 11 mM Glucose, 2 mM glutamine, 15% heat-inactivated fetal calf serum (FCS), 100 U/ml penicillin, 100 µg/ml streptomycin and 61 μM β-mercaptoethanol. Human islets were obtained from the European Consortium for Islet Transplantation (ECIT) at the San Raffaele Hospital and from the Niguarda Hospital, (Milan, Italy) and cultured in CMRL-1066 media (Biological Industries, Beit HaEmek, Israel) supplemented with 10% FCS, 5.5 mM glucose, 2 mM L-Glutamine, 100 U/ml penicillin, 100 μg/ml streptomycin and 150 μg/ml gentamycin. Palmitate was added to 1% FCS and 0.5% defatted BSA (Roche, Germany).
Next, the ability of the compounds to rescue human islet cells from palmitate-induced apoptosis was determined. To this end, the Caspase-Glo 3/7 assay reagent (Promega) was used for caspase 3/7 detection in palmitic acid-treated cells. The reagent provides a proluminescent caspase-3/7 substrate, which contains the tetrapeptide sequence DEVD, in combination with luciferase and a cell-lysing agent. The addition of the reagent directly to the wells results in cell lysis, followed by caspase cleavage of the DEVD substrate, and the generation of luminescence.
Accordingly, human islets from two donors were exposed to the various compounds or to L-798106 for 48 h in the presence of palmitic acid, and the bioluminescence was measured as compared to control cells. FIGS. 3A-3B show the results of the treatment with […] of the compounds in two human donors (FIG. 3A—donor 1, FIG. 3B—donor 2). PA: Palmitate; L: L-798106; RLU: Relative Light Units. The results are average of triplicates or quadruplicates ±SEM (except in islets from L-798106 treated donor 2, representing duplicates).
Next, various concentrations of the compounds were tested in human pancreatic islet cells. Cells obtained from the first healthy donor (donor 1) were incubated in the presence or absence of PA with C13, C5 or L-798106 (L) at concentrations of 5, 2.5 and 0.5 μM. Caspase 3/7 enzymatic activity was measured as described above. The enzymatic activity is presented in FIG. 5A for 5 μM, FIG. 5B for 2.5 μM and FIG. 5C for 0.5 μM as relative light units (RLU/μg protein) and the graphs represent the average of n=3-4.

[3] = blood insulin concentrations by serum C-peptide ELISA; format: in vivo; conditions: 8 weeks oral treatment; vs vehicle-treated diabetic mice
Method: At the end of the 8 week-long period of treatment as described in Example 9, mice were sacrificed and blood samples were collected, and analyzed for different parameters as detailed below.
Blood insulin concentrations.
Blood insulin concentrations. Following 8 weeks of treatment, blood samples were collected and the levels of insulin in the collected sera were assessed essentially as described in Example 12. The results are presented in FIG. 28, in which the different test groups as presented in FIG. 28 are represented as described in Example 14 and “ns” indicates non-significant differences. The numbers of tested mice are as follows: vehicle (n=10), L-798106 (n=10), C17 (n=5), C20 (n=5).

[4] = oral 3 mg/kg/day, 24 h after third gavage

Row | Compound | blood glucose concentration [1] | blood glucose concentrations [1] | Creatinine ([2]; IP, 24 h after injection) | Urea ([2]; IP, 24 h after injection) | Creatinine [2, 4] | Urea [2, 4] | physical or behavioral differences (C57Bl/6 mice) | differences between experimental groups and saline/DMSO control mice (summary) (C57Bl/6 mice) | inhibition of palmitate-induced apoptosis in human islets, compared with L-798106 (human islet cells; donor 1, 5, 2.5 and 0.5 μM) | rescuing human islet cells from apoptosis, compared with L-798106 (human islet cells; palmitic acid, 48 h) | blood insulin levels (serum C-peptide) in diabetic mice [3] | efficacy at all tested concentrations (human islet cells; donor 1, 5, 2.5 and 0.5 μM) | inhibiting or reversing palmitate-induced apoptosis in pancreatic islets of both human donors (human islet cells; palmitic acid, 48 h)
1 | CC[C@H](C)c1ccc(S(=O)(=O)Nc2ccccc2C(=O)N2C[C@@H](C)O[C@@H](C)C2)cc1 [Compound C5, 4-((S)-sec-butyl)-N-(2-((2S,6R)-2,6-dimethylmorpholine-4-carbonyl)phenyl)benzenesulfonamide] | no differences were observed | no significant alterations | no statistically significant differences | no statistically significant differences | No statistically significant differences | No statistically significant differences | No physical or clinical behavioral differences | no significant differences were observed | to a greater extent than L-798106 | to a greater extent than the EP3 antagonist L-798106 | the differences did not reach statistical significance | – | –
2 | CC[C@@H]1CC[C@H](C)N1C(=O)c1cccc(NS(=O)(=O)c2ccc(C)c(F)c2)c1 [Compound C13, N-(3-((2R,5S)-2-ethyl-5-methylpyrrolidine-1-carbonyl)phenyl)-3-fluoro-4-methylbenzenesulfonamide] | no differences were observed | no significant alterations | p-value >0.05 | p-value >0.05 | No statistically significant differences | No statistically significant differences | No physical or clinical behavioral differences | no significant differences were observed | to a greater extent than L-798106 | to a greater extent than the EP3 antagonist L-798106 | the differences did not reach statistical significance | remarkable efficacy | particularly high efficacy
3 | COc1ccc(Br)cc1S(=O)(=O)NC(=O)/C=C/c1ccccc1Cc1ccc2ccccc2c1 [Compound L-798106, (2E)-N-[(5-bromo-2-methoxyphenyl)sulfonyl]-3-[2-(2-naphthalenylmethyl)phenyl]-2-propenamide, reference compound] | no differences were observed | no significant alterations | no statistically significant differences | no statistically significant differences | No statistically significant differences | No statistically significant differences | No physical or clinical behavioral differences | no significant differences were observed | – | – | the differences did not reach statistical significance | – | –

Reference: US20240261296A1, “THERAPEUTIC MODALITIES FOR INHIBITING PANCREATIC BETA CELL IMPAIRMENT AND TREATING DIABETES” (Hadasit Medical Research Serices & Development Ltd., priority 2021, published 2024)
